# Data from article PMC10526194 (2023).
# Columns and labels:
# [1] = test system: thiol-modified 40-mer aptamer (DNA, aptamer) ACGTTGACGCTGGTGCCCGGTTGTGGTGCGAGTGTTGTGT; test: QCM with dissipation (frequency decrease); settings: 100 mM Na+, 5 mM K+, 2 mM Mg2+, 1 mM Ca2+; pH 7.1 and 9.1, 25 °C; 20 and 40 µM OTC
# [2] = test system: 40-mer aptamer (DNA, aptamer) ACGTTGACGCTGGTGCCCGGTTGTGGTGCGAGTGTTGTGT; test: CD thermal denaturation (250 nm free, 270 nm bound); settings: 100 mM Na+, 5 mM K+, 2 mM Mg2+, 1 mM Ca2+; 20 mM Tris pH 7.1; 40 µM OTC, 5 µM aptamer; derived from two Tm (41 to 80 °C)
# [3] = test system: 40-mer aptamer (DNA, aptamer) ACGTTGACGCTGGTGCCCGGTTGTGGTGCGAGTGTTGTGT; test: CD titration; settings: 100 mM Na+, 5 mM K+, 2 mM Mg2+, 1 mM Ca2+; 20 mM Tris pH 7.6, 25 °C; 5 µM aptamer, 2.5-40 µM OTC
# [4] = test system: 71-mer aptamer (DNA, aptamer) GGAATTCGCTAGCACGTTGACGCTGGTGCCCGGTTGTGGTGCGAGTGTTGTGTGGATCCGAGCTCCACGTG; test: CD titration; settings: 100 mM Na+, 5 mM K+, 2 mM Mg2+, 1 mM Ca2+; 20 mM Tris pH 7.6, 25 °C; 5 µM aptamer, 2.5-40 µM OTC
smiles,measurement,setting,value
CN(C)[C@@H]1C(=O)C(C(N)=O)=C(O)[C@@]2(O)C(=O)C3=C(O)c4c(O)cccc4[C@@](C)(O)[C@H]3[C@H](O)[C@@H]12,binding,[1],yes
same,Tm shift (ΔTm),[2],39 °C
same,binding,[3],yes
same,binding,[4],yes
